{
  "source": "patent US11530213B2",
  "about": "“Naphthyridinone derivatives and their use in the treatment of arrhythmia” (NOVARTIS AG, priority 2016, dated 2022)",
  "data": [
    {"target": "GIRK1/4 (Homo sapiens (Human), UniProt P48544+P48549)", "sequence (P48549 whole entry)": "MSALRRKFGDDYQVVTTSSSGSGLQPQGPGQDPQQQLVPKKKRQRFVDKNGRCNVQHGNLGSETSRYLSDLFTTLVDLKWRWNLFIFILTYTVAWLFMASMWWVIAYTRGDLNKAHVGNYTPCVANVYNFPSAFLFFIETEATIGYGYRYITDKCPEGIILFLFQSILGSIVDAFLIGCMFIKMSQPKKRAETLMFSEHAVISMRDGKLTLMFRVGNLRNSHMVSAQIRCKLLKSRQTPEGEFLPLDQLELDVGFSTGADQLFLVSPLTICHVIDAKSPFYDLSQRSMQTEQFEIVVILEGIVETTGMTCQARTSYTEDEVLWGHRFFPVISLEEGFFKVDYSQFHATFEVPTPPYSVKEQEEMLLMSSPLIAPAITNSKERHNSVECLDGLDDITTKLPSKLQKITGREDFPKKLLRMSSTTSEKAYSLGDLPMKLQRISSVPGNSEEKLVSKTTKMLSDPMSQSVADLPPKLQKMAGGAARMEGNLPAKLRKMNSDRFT", "sequence (P48544 whole entry)": "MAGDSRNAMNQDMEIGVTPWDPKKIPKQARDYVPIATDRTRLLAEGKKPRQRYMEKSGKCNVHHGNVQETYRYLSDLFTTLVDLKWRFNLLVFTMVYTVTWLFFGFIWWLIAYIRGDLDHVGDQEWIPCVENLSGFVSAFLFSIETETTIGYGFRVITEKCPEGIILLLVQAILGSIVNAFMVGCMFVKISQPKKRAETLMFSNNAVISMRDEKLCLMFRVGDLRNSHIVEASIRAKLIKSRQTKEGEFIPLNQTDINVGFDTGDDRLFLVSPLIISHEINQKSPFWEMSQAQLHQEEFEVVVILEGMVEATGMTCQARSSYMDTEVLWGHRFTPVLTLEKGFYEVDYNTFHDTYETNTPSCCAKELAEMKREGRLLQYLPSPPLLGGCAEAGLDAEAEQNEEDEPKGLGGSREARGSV", "assay": "GIRK1/4 inhibition, Quattro (IonWorks) population patch clamp, inward potassium current in GIRK 1/4 HEK293 stable cells (test assay No. 1)", "type": "cell-based", "settings": "percentage of current inhibition normalized to DMSO-only control", "in_short": "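GIRK1/4-expressing HEK293 cells were recorded by IonWorks Quattro perforated patch (amphotericin B), with inward K+ current measured at 1200-1220 ms during a −120 to 40 mV ramp, before and after compound (50-0.1 µM or 0.5-0.01 µM final, quadruplicate). IC50 came from % current inhibition normalized to DMSO control.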", "units": {"IC50": "nM"}, "values": [
      {"smiles": "O=c1cc(CO)n(-c2c(Cl)cccc2Cl)c2c(Cl)cnc(O)c12", "note": "[Example 64, 8-Chloro-1-(2,6-dichlorophenyl)-5-hydroxy-2-(hydroxymethyl)-1,6-naphthyridin-4(1H)-one]", "IC50": 970},
      {"smiles": "CNc1cc2c(c(OCC(O)CO)n1)c(=O)cc(C)n2-c1c(Cl)cccc1Cl", "note": "(stereo not drawn) [Example 65, 1-(2,6-Dichlorophenyl)-5-(2,3-dihydroxpropoxy)-2-methyl-7-(methylamino)-1,6-naphthyridin-4(1H)-one]", "IC50": 390},
      {"smiles": "CCc1cc2c(c(OCC(O)CO)n1)c(=O)cc(C)n2-c1c(Cl)cccc1Cl", "note": "(stereo not drawn) [Example 66, 1-(2,6-Dichlorophenyl)-5-(2,3-dihydroxpropoxy)-7-ethyl-2-methyl-1,6-naphthyridin-4(1H)-one]", "IC50": 34},
      {"smiles": "CCc1cc2c(c(OCC(O)CO)n1)c(=O)cc(C)n2-c1c(Cl)cccc1CC", "note": "(stereo not drawn) [Example 67, 1-(2-Chloro-6-ethylphenyl)-5-(2,3-dihydroxypropoxy)-7-ethyl-2-methyl-1,6-naphthyridin-4(1H)-one]", "IC50": 168},
      {"smiles": "COc1cc2c(c(OCC(O)CO)n1)c(=O)cc(C)n2-c1c(Cl)cccc1Cl", "note": "(stereo not drawn) [Example 68, 1-(2,6-Dichlorophenyl)-5-(2,3-dihydroxpropoxy)-7-methoxy-2-methyl-1,6-naphthyridin-4(1H)-one]", "IC50": 234},
      {"smiles": "CCc1cnc(OCC(O)CO)c2c(=O)cc(C)n(-c3c(Cl)cccc3Cl)c12", "note": "(stereo not drawn) [Example 69, 1-(2,6-Dichlorophenyl)-5-(2,3-dihydroxpropoxy)-8-ethyl-2-methyl-1,6-naphthyridin-4(1H)-one]", "IC50": 115},
      {"smiles": "Cc1cc(=O)c2c(NS(=O)(=O)c3cn[nH]c3)cncc2n1-c1c(Cl)cc(C#N)cc1Cl", "note": "[Example 70, N-(1-(2,6-Dichloro-4-cyanophenyl)-2-methyl-4-oxo-1,4-dihydro-1,7-naphthyridin-5-yl)-1H-pyrazole-4-sulfonamide]", "IC50": 3050},
      {"smiles": "Cc1cc(=O)c2c(-n3cncn3)ncc(Cl)c2n1-c1c(Cl)cccc1Cl", "note": "[Example 71, 8-Chloro-1-(2,6-dichlorophenyl)-2-methyl-5-(1H-1,2,4-triazol-1-yl)-1,6-naphthyridin-4(1H)-one]", "IC50": 176},
      {"smiles": "Cc1cc(=O)c2c(-c3cc[nH]n3)cncc2n1-c1c(Cl)cc(C#N)cc1Cl", "note": "[Example 72, 3,5-dichloro-4-(2-methyl-4-oxo-5-(1H-pyrazol-3-yl)-1,7-naphthyridin-1(4H)-yl)benzonitrile]", "IC50": 280},
      {"smiles": "Cc1cc(=O)c2c(-c3cnn(C)c3)cncc2n1-c1c(Cl)cc(C#N)cc1Cl", "note": "[Example 73, 3,5-Dichloro-4-(2-methyl-5-(1-methyl-1H-pyrazol-4-yl)-4-oxo-1,7-naphthyridin-1(4H)-yl)benzonitrile]", "IC50": 329},
      {"smiles": "O=c1cc(CO)n(-c2c(Cl)cccc2Cl)c2c(Cl)cnc(CCCO)c12", "note": "[Example 74, 8-Chloro-1-(2,6-dichlorophenyl)-2-(hydroxymethyl)-5-(3-hydroxypropyl)-1,6-naphthyridin-4(1H)-one]", "IC50": 69},
      {"smiles": "O=c1cc(CO)n(-c2c(Cl)cccc2Cl)c2c(Cl)cnc(CCC(O)CO)c12", "note": "(stereo not drawn) [Example 75, 8-Chloro-1-(2,6-dichlorophenyl)-5-(3,4-dihydroxybutyl)-2-(hydroxymethyl)-1,6-naphthyridin-4(1H)-one]", "IC50": 214},
      {"smiles": "O=c1cc(CO)n(-c2c(Cl)cccc2Cl)c2c(Cl)cnc(CC(O)CO)c12", "note": "(stereo not drawn) [Example 78, 8-Chloro-1-(2,6-dichlorophenyl)-5-(2,3-dihydroxypropyl)-2-(hydroxymethyl)-1,6-naphthyridin-4(1H)-one]", "IC50": 352},
      {"smiles": "Cc1cc(=O)c2c(CC(O)CO)ncc(Cl)c2n1-c1c(Cl)cccc1Cl", "note": "(stereo not drawn) [Example 81, 8-Chloro-1-(2,6-dichlorophenyl)-5-(2,3-dihydroxpropyl)-2-methyl-1,6-naphthyridin-4(1H)-one]", "IC50": 23},
      {"smiles": "O=c1cc(CO)n(-c2c(Cl)cccc2Cl)c2c(Cl)cnc(C(O)CO)c12", "note": "(stereo not drawn) [Example 82, 8-Chloro-1-(2,6-dichlorophenyl)-5-(1,2-dihydroxyethyl)-2-(hydroxymethyl)-1,6-naphthyridin-4(1H)-one]", "IC50": 147}
    ]}
  ]
}
